Patent US8916499B2, “Herbicidal compositions comprising 4-amino-3-chloro-5-fluoro-6-(4-chloro-2-fluoro-3-methoxyphenyl) pyridine-2-carboxylic acid or a derivative thereof and a protoporphyrinogen oxidase inhibitor” (Dow AgroSciences LLC, priority 2012, dated 2014)

Key:
CYPIR = experiment: Postemergence foliar-applied weed control, direct seeded rice, greenhouse (Example I); type: in vivo, Cyperus iria L.
IPOHE [1] = experiment: as above; type: in vivo, Ipomoea hederacea Jacq.; conditions: g ae/ha Compound A Benzyl Ester+g ai/ha bifenox (Fox ®): r11 16+0, r12 32+0, r13 0+180, r14 16+180, r15 32+180
SCPMA = experiment: In-water applied weed control, transplanted paddy rice, greenhouse (Example II); type: in vivo; conditions: Bifenox (Fox ®) 180 g ai/ha alone
ECHOR = experiment: as above; type: in vivo, Echinochloa oryzoides (Ard.) Fritsch; conditions: Bifenox (technical) 720 g ai/ha alone
PAPRH = experiment: Postemergence foliar herbicidal activity of mixtures in cereal crops, greenhouse (Example III); type: in vivo, Papaver rhoeas L.; conditions: foliar-applied
Description: Seeds of the desired test plant species were planted in Sun Gro MetroMix® 306 planting mixture, which typically has a pH of 6.0 to 6.8 and an organic matter content of about 30 percent, in plastic pots with a surface area of 103.2 square centimeters (cm^2). When required to ensure good germination and healthy plants, a fungicide treatment and/or other chemical or physical treatment was applied. The plants were grown for 7-36 days in a greenhouse with an approximate 14 hour photoperiod which was maintained at about 18° C. during the day and about 17° C. during the night. Nutrients and water were added on a regular basis and supplemental lighting was provided with overhead metal halide 1000-Watt lamps as necessary. The plants were employed for testing when they reached the second or third true leaf stage.
Treatments consisted of the benzyl ester of 4-amino-3-chloro-5-fluoro-6-(4-chloro-2-fluoro-3-methoxy-phenyl)pyridine-2-carboxylic acid (Compound A), formulated as an SC, a second cereal herbicide alone and then both in combination.
Other herbicidal components were applied on an active ingredient basis and included PSII-inhibiting herbicides.
Measured aliquots of benzyl ester of 4-amino-3-chloro-5-fluoro-6-(4-chloro-2-fluoro-3-methoxy-phenyl)pyridine-2-carboxylic acid (Compound A) were placed in 25 milliliter (mL) glass vials and diluted in a volume of 1.25% (v/v) Agri-Dex® crop oil concentrate to obtain stock solutions. Compound requirements are based upon a 12 mL application volume at a rate of 187 liters per hectare (L/ha). Spray solutions of the second cereal herbicide and experimental compound mixtures were prepared by adding the stock solutions to the appropriate amount of dilution solution to form 12 mL spray solution with active ingredients in two- and three-way combinations. Formulated compounds were applied to the plant material with an overhead Mandel track sprayer equipped with an 8002E nozzle calibrated to deliver 187 L/ha over an application area of 0.503 square meters (m^2) at a spray height of 18 inches (46 cm) above average plant canopy. Control plants were sprayed in the same manner with the solvent blank.
The treated plants and control plants were placed in a greenhouse as described above and watered by sub-irrigation to prevent wash-off of the test compounds. After 20-22 days, the condition of the test plants as compared with that of the control plants was determined visually and scored on a scale of 0 to 100 percent where 0 corresponds to no injury and 100 corresponds to complete kill.
(§1) Colby's equation was used to determine the herbicidal effects expected from the mixtures (Colby, S. R. 1967. Calculation of the synergistic and antagonistic response of herbicide combinations. Weeds 15:20-22.).
(§2) The following equation was used to calculate the expected activity of mixtures containing two active ingredients, A and B: Expected=A+B−(A×B/100)

IPOHE [2] = experiment: Pre-emergence soil-applied weed control, greenhouse (Example IV); type: in vivo, Ipomoea hederacea (L.) Jacq.
Excerpt: (§3) Seeds or nutlets of the desired test plant species were planted in a soil matrix prepared by mixing a loam soil (32 percent silt, 23 percent clay, and 45 percent sand, with a pH of about 6.5 and an organic matter content of about 1.9 percent) and calcareous grit in an 80 to 20 ratio. The soil matrix was contained in plastic pots with a volume of 1 quart and a surface area of 83.6 square centimeters (cm^2).
(§4) Treatments consisted of the benzyl ester of 4-amino-3-chloro-5-fluoro-6-(4-chloro-2-fluoro-3-methoxy-phenyl)pyridine-2-carboxylic acid (compound A) formulated as an SC (suspension concentrate) and various herbicidal components alone and in combination. Forms of compound A were applied on an acid equivalent basis.
(§5) Other herbicidal components were applied on an acid equivalent or active ingredient basis and included the protoporphyrinogen oxidase (PPO)-inhibiting herbicides, flumioxazin formulated as Payload® and oxadiazon formulated as Ronstar® 50W.
(§6) Treatment requirements were calculated based upon the rates being tested, the concentration of active ingredient or acid equivalent in the formulation, and a 12 mL application volume at a rate of 187 L/ha.
(§7) For treatments comprised of formulated compounds, measured amounts of compounds were placed individually in 25 mL glass vials and diluted in a volume of 1.25% (v/v) Agri-Dex® crop oil concentrate (COC) to obtain 12× stock solutions. […] Application solutions were prepared by adding an appropriate amount of each stock solution (e.g., 1 mL) and diluted to the appropriate final concentrations with the addition of 10 mL of an aqueous mixture of 1.25% (v/v) COC so that the final spray solutions contained 1.25% (v/v) COC.
(§8) All stock solutions and applications solutions were visually inspected for compound compatibility prior to application. Spray solutions were applied to the soil with an overhead Mandel track sprayer equipped with a 8002E nozzles calibrated to deliver 187 L/ha over an application area of 0.503 m^2 at a spray height of 18 inches (46 cm) above average pot height. Control pots were sprayed in the same manner with the solvent blank.
(§9) The treated and control pots were placed in a greenhouse and top watered as needed. When required to ensure good germination and healthy plants, a fungicide treatment and/or other chemical or physical treatment was applied. The pots were maintained in a greenhouse with an approximate 14 hr photoperiod which was maintained at about 29° C. during the day and 26° C. during the night. Nutrients (Peters® Excel 15-5-15 5-Ca 2-Mg) were applied in the irrigation solution as needed and water was added on a regular basis. Supplemental lighting was provided with overhead metal halide 1000-Watt lamps as necessary. After approximately 4 weeks, the condition of the test plants as compared with that of the untreated plants was determined visually and scored on a scale of 0 to 100 percent where 0 corresponds to no injury or growth inhibition and 100 corresponds to complete kill.
as §1, §2

XANST = experiment: as above; type: in vivo, Xanthium strumarium L.
Excerpt: as §3, §4, §5, §6, §7, §8
as §9, with “Nutrients (Peters® Excel 15-5-15 5-Ca 2-Mg) were applied in the irrigation solution as needed and water was added on a regular basis. Supplemental lighting was provided with overhead metal halide 1000-Watt lamps as necessary.” left out, “kill. […]” for “kill.”

SETVI = experiment: as above; type: in vivo, Setaria viridis (L.) Beauv.; conditions: 105 g ai/ha alone
Excerpt: as §3, §4, §5, §6
as §7, with “COC. […]” for “COC.”
The treated and control pots were placed in a greenhouse and top watered as needed. […] After approximately 4 weeks, the condition of the test plants as compared with that of the untreated plants was determined visually and scored on a scale of 0 to 100 percent where 0 corresponds to no injury or growth inhibition and 100 corresponds to complete kill. […]

Compound | Visual Weed Control (%) - 21 DAA CYPIR Obs (CYPIR; g ae/ha Compound A Benzyl Ester+g ai/ha bifenox (Fox ®): r17 8+0, r18 0+180, r19 0+360, r20 0+720, r21 8+180, r22 8+360, r23 8+720) [%] | Visual Weed Control (%) - 22 DAA CYPIR Obs (CYPIR; g ae/ha Compound A Benzyl Ester+g ai/ha bifenox (technical): r23 8+0, r24 16+0, r25 0+180, r26 0+720, r27 8+180, r28 16+180, r29 8+720, r30 16+720) [%] | Visual Weed Control (%) - 21 DAA IPOHE Obs (IPOHE [1]) [%] | Visual Weed Control (%) - 21 DAA SCPMA Obs (SCPMA) [%] | Visual Weed Control (%) - 21 DAA ECHOR Obs (ECHOR) [%] | Visual Weed Control (%) - 21 DAA PAPRH Obs (PAPRH; 180 g ai/ha alone) [%] | Visual Weed Control (%) - 21 DAA PAPRH Obs (PAPRH; 360 g ai/ha alone) [%] | Visual Weed Control (%) - 21 DAA PAPRH Obs (PAPRH; 780 g ai/ha alone) [%] | Visual Weed Control (%) - 28 DAA IPOHE Obs (IPOHE [2]; 105 g ai/ha alone) [%] | Visual Weed Control (%) - 28 DAA IPOHE Obs (IPOHE [2]; 210 g ai/ha alone) [%] | Visual Weed Control (%) - 28 DAA IPOHE Obs (IPOHE [2]; 420 g ai/ha alone) [%] | Visual Weed Control (%) - 29 DAA XANST Obs (XANST; 105 g ai/ha alone) [%] | Visual Weed Control (%) - 29 DAA XANST Obs (XANST; 210 g ai/ha alone) [%] | Visual Weed Control (%) - 28 DAA SETVI Obs (SETVI) [%]
COC(=O)c1cc(Oc2ccc(Cl)cc2Cl)ccc1[N+](=O)[O-] [Bifenox, methyl 5-(2,4-dichlorophenoxy)-2-nitrobenzoate] | 0 | 0 | 55 | 40 | 40 | 5 | 8 | 8 |  |  |  |  |  | 
C#CCN1C(=O)COc2cc(F)c(N3C(=O)C4=C(CCCC4)C3=O)cc21 [Fumioxazin] |  |  |  |  |  |  |  |  | 70 | 70 | 90 | 18 | 48 | 73
